# Data as given in patent publication US9029409B2, “Isoxazolines as therapeutic agents” (AbbVie Inc., priority 2011, dated 2015).
# Target: T1, recombinant human MMP13 catalytic domain (CD) (Homo sapiens, UniProt P45452)
# T1 construct: catalytic domain (CD) construct encompassing residues 20-274 (SWISS-PROT P45452); made in house
# Assay: MMP-13 catalytic domain FRET enzyme assay
# Format: biochemical
# Conditions: recombinant human MMP-13 catalytic domain
# In short: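 Human MMP-13 catalytic domain (res 20-274, E. coli-expressed), 0.4 nM, cleaving FRET peptide (0.25 μM) in Tris pH 7.5/CaCl2/NaCl/Brij 35, 5% DMSO, 60 min RT; EDTA-quenched, fluorescence 485/535 nm. IC50 from sigmoidal fit of % inhibition. Some compounds also run on APMA-activated full-length MMP13 (2 nM).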
row,IC50 [nM],Compound
1,> 1000,Cc1cccc(CNC(=O)c2cc(C3=NO[C@H]([C@H]4CO[C@H](CO)CO4)C3)nc(C)n2)c1
2,> 1000,COc1ccc(CNC(=O)c2cc(C3=NO[C@H]([C@H]4CO[C@@H](CO)CO4)C3)nc(C)n2)cc1 [drawing 923]
3,< 10,COc1cc(CNC(=O)c2cc(C3=NOC([C@H]4CC[C@H](C(=O)NCCO)CC4)C3)nc(C)n2)ccc1F (some centres unmarked)
4,10 to 100,COc1cc(CNC(=O)c2cc(C3=NO[C@H]([C@H]4CO[C@H](CS(C)(=O)=O)CO4)C3)nc(C)n2)ccc1F
5,< 10,COc1cc(CNC(=O)c2cc(C3=NOC(c4ccc(C#N)nc4)C3)nc(C)n2)ccc1F (centres unmarked)
6,100 to 1000,COc1ccc(CNC(=O)c2cc(C3=NOC(C)(c4ccc(OCCO)cc4)C3)nc(C)n2)cc1 (centres unmarked)
7,10 to 100,COc1cc(CNC(=O)c2cc(C3=NOC([C@H]4CC[C@H](NC(=O)NC(CO)CO)CC4)C3)nc(C)n2)ccc1F (some centres unmarked)
8,> 1000,Cc1nc(C(=O)NCc2cccc(F)c2)cc(C2=NO[C@H]([C@H]3CO[C@H](CO)CO3)C2)n1
9,> 1000,COc1cc(CNC(=O)c2cc(C3=NOC(c4ccc(N(C)C)nn4)C3)nc(C)n2)ccc1F (centres unmarked)
10,10 to 100,Cc1nc(C(=O)NCc2ccc(F)c(Cl)c2)cc(C2=NO[C@@H]([C@H]3CC[C@H](NC(=O)[C@H](C)O)CC3)C2)n1
11,> 1000,COc1ccc(CNC(=O)c2cc(C3=NOC(C)(c4ccccc4)C3)ccn2)cc1 (centres unmarked)
12,10 to 100,Cc1nc(C(=O)NCc2ccc(F)c(Cl)c2)cc(C2=NOC(c3ccc(C#N)nn3)C2)n1 (centres unmarked)
13,< 10,COc1cc(CNC(=O)c2cc(C3=NOC(c4ccc(-c5nc(C)no5)nc4)C3)nc(C)n2)ccc1F (centres unmarked)
14,10 to 100,COc1ccc(CNC(=O)c2cc(C3=NOC(c4cccc(OCCO)c4)C3)nc(C)n2)cc1 (centres unmarked)
15,10 to 100,COc1cc(CNC(=O)c2cc(C3=NOC(c4ccc(=O)n(C)n4)C3)nc(C)n2)ccc1F (centres unmarked)
16,> 1000,COc1cc(CNC(=O)c2cc(C3=NOC(c4c[nH]cn4)C3)nc(C)n2)ccc1F (centres unmarked)
17,< 10,COc1cc(CNC(=O)c2cc(C3=NO[C@H]([C@H]4CO[C@H](CC#N)CO4)C3)nc(C)n2)ccc1F
18,10 to 100,CNCC(C)N[C@H]1CC[C@H](C2CC(c3cc(C(=O)NCc4ccc(F)c(OC)c4)nc(C)n3)=NO2)CC1 (some centres unmarked)
19,> 1000,Cc1nc(C(=O)NCc2ccncc2)cc(C2=NO[C@@H]([C@H]3CO[C@H](CO)CO3)C2)n1
20,< 10,COc1cc(CNC(=O)c2cc(C3=NOC(c4ccc(C#N)nn4)C3)nc(C)n2)ccc1F (centres unmarked)
21,10 to 100,COc1cccc(C2CC(c3cc(C(=O)NCc4ccc(F)c(OC)c4)nc(C)n3)=NO2)n1 (centres unmarked)
22,< 10,COc1cc(CNC(=O)c2cc(C3=NOC([C@H]4CC[C@H](CNC(C)=O)CC4)C3)nc(C)n2)ccc1F (some centres unmarked)
23,10 to 100,COc1ccc(CNC(=O)c2cc(C3=NOC(c4ccc(N5CCOCC5)cc4)C3)nc(C)n2)cc1 (centres unmarked)
24,> 1000,Cc1nc(C(=O)NCc2ccc(F)c(F)c2)cc(C2=NO[C@H]([C@H]3CO[C@H](CO)CO3)C2)n1 [drawing 953]
25,< 10,COc1cc(CNC(=O)c2cc(C3=NOC([C@H]4CC[C@H](NC(=O)NCCO)CC4)C3)nc(C)n2)ccc1F (some centres unmarked)
26,10 to 100,CNC(=O)Cn1cc([C@H]2CC(c3cc(C(=O)NCc4ccc(F)c(OC)c4)nc(C)n3)=NO2)ccc1=O

row,IC50 [nM],Compound
1,< 10,Cc1nc(C(=O)NCc2ccc(F)c(C)c2)cc(C2=NOC(C3CCN(S(C)(=O)=O)CC3)C2)n1 (centres unmarked)
2,< 10,Cc1nc(C(=O)NCc2ccc(F)c(C)c2)cc(C2=NOC([C@H]3CC[C@H](NC(=O)[C@H](C)O)CC3)C2)n1 (some centres unmarked)
3,10 to 100,Cc1nc(C(=O)NCc2ccc(F)c(Cl)c2)cc(C2=NOC(C3CCN(C(=O)CO)CC3)C2)n1 (centres unmarked)
4,10 to 100,CC(=O)N1CCC(C2CC(c3cc(C(=O)NCc4ccc(F)c(C)c4)nc(C)n3)=NO2)CC1 (centres unmarked)
5,> 1000,COc1cc(CNC(=O)c2cc(C3=NOC(CN4CCOCC4)C3)nc(C)n2)ccc1F (centres unmarked)
6,> 1000,COc1cccc(CNC(=O)c2cc(C3=NO[C@@H]([C@@H]4CO[C@@H](CO)CO4)C3)nc(C)n2)c1
7,10 to 100,Cc1nc(C(=O)NCc2ccc3c(c2)OCCO3)cc(C2=NO[C@H]([C@H]3CO[C@H](CO)CO3)C2)n1
8,10 to 100,COc1cc(CNC(=O)c2cc(C3=NOC(c4ccccn4)C3)nc(C)n2)ccc1F (centres unmarked)
9,< 10,COc1ccc(CNC(=O)c2cc(C3=NOC(c4ccc(C(N)=O)cc4)C3)nc(C)n2)cc1 (centres unmarked)
10,10 to 100,COc1cc(CNC(=O)c2cc(C3=NOC(C4CCN(S(=O)(=O)C5CC5)CC4)C3)nc(C)n2)ccc1F (centres unmarked)
11,10 to 100,COc1cc(CNC(=O)c2cc(C3=NOC(C4CCN(C(=O)C(C)C)CC4)C3)nc(C)n2)ccc1F (centres unmarked)
12,10 to 100,COc1cc(CNC(=O)c2cc(C3=NOC(C4CCN(C(=O)CNS(C)(=O)=O)CC4)C3)nc(C)n2)ccc1F (centres unmarked)
13,10 to 100,COc1cccc(CNC(=O)c2cc(C3=NO[C@H]([C@@H]4CO[C@@H](CO)CO4)C3)nc(C)n2)c1
14,10 to 100,COc1cccc(CNC(=O)c2cc(C3=NO[C@H]([C@H]4CO[C@H](CO)CO4)C3)nc(C)n2)c1
15,10 to 100,COc1cc(CNC(=O)c2cc(C3CC(c4ccccc4)=NO3)nc(C)n2)ccc1F (centres unmarked)
16,10 to 100,COc1cc(CNC(=O)c2cc(C3=NO[C@H]([C@@H]4CO[C@@H](CO)CO4)C3)nc(C)n2)ccc1F
17,< 10,COc1cc(CNC(=O)c2cc(C3=NOC(C4CCN(C(=O)NCCO)CC4)C3)nc(C)n2)ccc1F (centres unmarked) [drawing 888]
18,< 10,COc1cc(CNC(=O)c2cc(C3=NOC(c4cc(Cl)c(=O)n(C5CC5)c4)C3)nc(C)n2)ccc1F (centres unmarked)
19,< 10,COc1cc(CNC(=O)c2cc(C3=NO[C@H]([C@H]4CC[C@H](NC(C)=O)CC4)C3)nc(C)n2)ccc1F [drawing 1031]
20,< 10,COc1cc(CNC(=O)c2cc(C3=NOC(c4ccc(CN5CCS(=O)(=O)CC5)cc4)C3)nc(C)n2)ccc1F (centres unmarked)
21,< 10,CC(=O)N[C@H]1CC[C@H](C2CC(c3cc(C(=O)NCc4ccc(F)c(Cl)c4)nc(C)n3)=NO2)CC1 (some centres unmarked)
22,10 to 100,CC(=O)N[C@H]1CC[C@H](C2CC(c3cc(C(=O)NCc4ccncc4)nc(C)n3)=NO2)CC1 (some centres unmarked)
23,< 10,COc1cc(CNC(=O)c2cc(C3=NO[C@H]([C@H]4CO[C@H](CNC(=O)[C@H](C)O)CO4)C3)nc(C)n2)ccc1F
24,10 to 100,Cc1nc(C(=O)NCc2ccc(F)c(Cl)c2)cc(C2=NO[C@H]([C@H]3CO[C@@H](CO)CO3)C2)n1 [drawing 925]
25,10 to 100,COc1ccc(CNC(=O)c2cc(C3=NOC(c4ccc(C(=O)O)cc4)C3)ccn2)cc1 (centres unmarked)
26,10 to 100,COc1cc(CNC(=O)c2cc(C3=NOC(C4CCN(C(=O)C5CC5)CC4)C3)nc(C)n2)ccc1F (centres unmarked) [drawing 1063]

row,IC50 [nM],Compound
1,> 1000,COc1ccc(CNC(=O)c2cc(C3=NO[C@H]([C@H]4CO[C@@H](CO)CO4)C3)nc(C)n2)cc1 [drawing 922]
2,< 10,COc1cc(CNC(=O)c2cc(C3=NO[C@H]([C@H]4CO[C@H](C(=O)O)CO4)C3)nc(C)n2)ccc1F
3,10 to 100,CC(=O)N[C@H]1CC[C@H]([C@H]2CC(c3cc(C(=O)NCc4ccc(F)c(C)c4)nc(C)n3)=NO2)CC1
4,> 1000,COC[C@@H]1CO[C@@H]([C@H]2CC(c3cc(C(=O)NCc4ccc(F)c(OC)c4)nc(C)n3)=NO2)CO1
5,100 to 1000,COc1ccc(CNC(=O)c2cc(C3=NOC(C)(c4ccc(Cl)cc4)C3)ccn2)cc1 (centres unmarked)
6,< 10,COc1cc(CNC(=O)c2cc(C3=NOC(c4cccc(CN5CCOCC5)c4)C3)nc(C)n2)ccc1F (centres unmarked)
7,< 10,COc1cc(CNC(=O)c2cc(C3=NOC(c4ccsc4)C3)nc(C)n2)ccc1F (centres unmarked)
8,> 1000,Cc1nc(C(=O)NCc2ccc(F)cc2)cc(C2=NO[C@@H]([C@H]3CO[C@H](CO)CO3)C2)n1
9,10 to 100,COc1cc(CNC(=O)c2cc(C3=NOC(c4ccnc(C(N)=O)c4)C3)nc(C)n2)ccc1F (centres unmarked)
10,10 to 100,CNC(=O)c1cccc(C2CC(c3cc(C(=O)NCc4ccc(F)c(OC)c4)nc(C)n3)=NO2)c1 (centres unmarked)
11,10 to 100,COc1cc(CNC(=O)c2cc(C3=NOC(C4CCN(C(=O)CO)CC4)C3)nc(C)n2)ccc1F (centres unmarked)
12,< 10,COc1cc(CNC(=O)c2cc(C3=NOC(c4ccc(C#N)cn4)C3)nc(C)n2)ccc1F (centres unmarked)
13,< 10,Cc1nc(C(=O)NCc2ccc(F)c(Cl)c2)cc(C2=NOC(c3ccc(=O)n(C)c3)C2)n1 (centres unmarked)
14,< 10,CC(=O)NC[C@@H]1CO[C@@H]([C@@H]2CC(c3cc(C(=O)NCc4ccc(F)c(Cl)c4)nc(C)n3)=NO2)CO1
15,10 to 100,Cc1nc(C(=O)NCc2ccc(F)c(F)c2)cc(C2=NOC(c3ccccn3)C2)n1 (centres unmarked)
16,< 10,CNC(=O)[C@@H]1CO[C@@H]([C@@H]2CC(c3cc(C(=O)NCc4ccc(F)c(OC)c4)nc(C)n3)=NO2)CO1
17,10 to 100,COc1cc(CNC(=O)c2cc(C3=NOC(c4cncnc4)C3)nc(C)n2)ccc1F (centres unmarked)
18,< 10,COc1cc(CNC(=O)c2cc(C3=NOC(c4ccc(=O)n(CC(=O)NC5CC5)c4)C3)nc(C)n2)ccc1F (centres unmarked)
19,< 10,COc1cc(CNC(=O)c2cc(C3=NOC(C4CCN(S(=O)(=O)c5nccn5C)CC4)C3)nc(C)n2)ccc1F (centres unmarked)
20,< 10,CC(=O)N[C@H]1CC[C@H]([C@H]2CC(c3cc(C(=O)NCc4ccc5c(c4)NC(=O)CO5)nc(C)n3)=NO2)CC1
21,10 to 100,COc1cc(CNC(=O)c2cc(C3=NOC(c4ccn(C)c(=O)c4)C3)nc(C)n2)ccc1F (centres unmarked)
22,100 to 1000,Cc1nc(C(=O)NCc2ccc(F)c(Cl)c2)cc(C2=NO[C@@H]([C@H]3CO[C@H](CO)CO3)C2)n1 [drawing 902]
23,100 to 1000,COc1cc(CNC(=O)c2cc(C3=NO[C@@H](c4ccn(C)c(=O)c4)C3)nc(C)n2)ccc1F
24,< 10,COc1cc(CNC(=O)c2cc(C3=NO[C@H](c4ccc(=O)n(C)c4)C3)nc(C)n2)ccc1F
25,10 to 100,COc1cc(CNC(=O)c2cc(C3=NOC(c4ccc(S(C)(=O)=O)nn4)C3)nc(C)n2)ccc1F (centres unmarked)
